According to ChEMBL document CHEMBL1629650 (2009):
Values after ≈ are worked out from the molar mass of the structure shown.

What was measured:
Assay type in all cases: functional
[1] = test system: Mycobacterium tuberculosis; experiment: Antibacterial activity against HYG cassette-positive Mycobacterium tuberculosis Rv4400 by modified conventional agar proportion method
[2] = test system: Mycobacterium tuberculosis; experiment: Antibacterial activity against HYG cassette-positive Mycobacterium tuberculosis B5401 by modified conventional agar proportion method
[3] = test system: Mycobacterium tuberculosis; experiment: Antibacterial activity against HYG cassette-positive Mycobacterium tuberculosis B5200 by modified conventional agar proportion method
[4] = test system: Mycobacterium tuberculosis; experiment: Antibacterial activity against HYG cassette-positive Mycobacterium tuberculosis BAS10 by modified conventional agar proportion method
[5] = test system: Mycobacterium tuberculosis; experiment: Antibacterial activity against Mycobacterium tuberculosis H37Rv by modified conventional agar proportion method
[6] = test system: Mycobacterium tuberculosis; experiment: Antibacterial activity against HYG cassette-positive Mycobacterium tuberculosis B5400 by modified conventional agar proportion method
[7] = test system: Mycobacterium tuberculosis; experiment: Antibacterial activity against HYG cassette-negative Mycobacterium tuberculosis Beijing by modified conventional agar proportion method
[8] = test system: Mycobacterium tuberculosis; experiment: Antibacterial activity against HYG cassette-positive Mycobacterium tuberculosis Rv8100 by modified conventional agar proportion method
[9] = test system: Mycobacterium tuberculosis; experiment: Antibacterial activity against HYG cassette-positive Mycobacterium tuberculosis RvAS9 by modified conventional agar proportion method
[10] = test system: Mycobacterium tuberculosis; experiment: Antibacterial activity against Mycobacterium tuberculosis Beijing by modified conventional agar proportion method
[11] = test system: Mycobacterium tuberculosis; experiment: Antibacterial activity against HYG cassette-positive Mycobacterium tuberculosis Rv8101 by modified conventional agar proportion method
[12] = test system: Mycobacterium tuberculosis; experiment: Antibacterial activity against HYG cassette-negative Mycobacterium tuberculosis H37Rv by modified conventional agar proportion method
[13] = test system: Mycobacterium tuberculosis; experiment: Antibacterial activity against HYG cassette-positive Mycobacterium tuberculosis B5201 by modified conventional agar proportion method
[14] = test system: Mycobacterium tuberculosis; experiment: Antibacterial activity against HYG cassette-positive Mycobacterium tuberculosis Rv4401 by modified conventional agar proportion method

In the case of CC[C@@H](CO)NCCN[C@@H](CC)CO [ETHAMBUTOL], the MIC [1] is reported as 10 µg/mL (≈ 48.9 µM), the MIC [2] is reported as 5 µg/mL (≈ 24.5 µM) and the MIC [3] is reported as 5 µg/mL (≈ 24.5 µM). The MIC [4] was 5 µg/mL (≈ 24.5 µM), the MIC [5] was 5 µg/mL (≈ 24.5 µM) and the MIC [6] was 5 µg/mL (≈ 24.5 µM). The MIC [7] was 5 µg/mL (≈ 24.5 µM), the MIC [8] was 5 µg/mL (≈ 24.5 µM) and the MIC [9] was 5 µg/mL (≈ 24.5 µM). For the same compound, the MIC [10] was 5 µg/mL (≈ 24.5 µM), the MIC [11] was 5 µg/mL (≈ 24.5 µM) and the MIC [12] was 5 µg/mL (≈ 24.5 µM). The MIC [13] was 5 µg/mL (≈ 24.5 µM) and the MIC [14] was 10 µg/mL (≈ 48.9 µM).
